Series [1] deals with Amaranth (Amaranthus viridis). The experiment in a line: Upland soil application test, amaranth. The format is in vivo. The conditions noted are these: 1200 h, soil application one day after seeding, 50 g ai/a, wettable powder, fresh weight on 50th day after spray, read-out: Herbicidal effects Amaranth (Amaranthus viridis). On the procedure:
(§1) Resin-made 1/1000-are pots were filled with the soil of an upland field. After they were fertilized, cotton and soybean were seeded and 3 cm soil covering was applied. In addition, amaranth, common lambs-quarters, barnyardgrass, green foxtail, large crabgrass and johnsongrass were seeded and 1 cm soil covering was applied. One day later, a wettable powder prepared from a predetermined amount of each test compound in a similar manner to the procedures described in Formulation Example 1 was diluted with water and then sprayed evenly at an application rate equal to 10 l per are onto the surface of the soil by means of a pressure-operated sprayer. The weeds and crops were allowed to grow in a green house and influence to them were observed on the 50th day after the spray. The degree of damages of each test plant and the degree of injury to each crop were determined by measuring fresh weight in each group and indicated by % calculated according to the following formula. [formula]

Series [2] concerns common lambsquarters. The series is described as follows: Upland soil application test, common lambsquarters. The class given is in vivo. The conditions noted are these: Chenopodium album, 1200 h; soil application one day after seeding, 50 g ai/a, wettable powder, fresh weight on 50th day after spray; read-out: Herbicidal effects Common lambquarters. On the procedure: as §1
Series [3] deals with Barnyardgrass (Echinochloa crusgalli). The series is described as follows: Upland soil application test, barnyardgrass. Particulars: Echinochloa crus-galli, 1200 h; soil application one day after seeding, 50 g ai/a, wettable powder, fresh weight on 50th day after spray; read-out: Herbicidal effects Barnyardgrass (Echinochloa crusgalli). The format is in vivo. On the procedure: as §1

Series [4] concerns Foxtail (Setaria viridis). The experiment in a line: Upland soil application test, green foxtail. The class given is in vivo. The conditions noted are these: 1200 h, soil application one day after seeding, 50 g ai/a, wettable powder, fresh weight on 50th day after spray, read-out: Herbicidal effects Foxtail (Setaria viridis). On the procedure: as §1
In series [5] the test system is Crabgrass (Digitaria adscendens). The experiment in a line: Upland soil application test, large crabgrass. The format is in vivo. The conditions noted are these: 1200 h, soil application one day after seeding, 50 g ai/a, wettable powder, fresh weight on 50th day after spray, read-out: Herbicidal effects Crabgrass (Digitaria adscendens). Here is the method:
as §1

In series [6] the test system is Johnsongrass. The experiment in a line: Upland soil application test, johnsongrass. The format is in vivo. The conditions noted are these: Sorghum halepense, 1200 h; soil application one day after seeding, 50 g ai/a, wettable powder, fresh weight on 50th day after spray; read-out: Herbicidal effects Johnsongrass. On the procedure:
as §1

Series [7] has as its system Soybean (Glycine max). The experiment in a line: Upland soil application test, crop injury soybean. The format is in vivo. The conditions noted are these: soil application one day after seeding, 50 g ai/a, wettable powder, fresh weight on 50th day after spray. On the procedure: as §1
The subject of series [8] is Cotton (Gossypium indicum). The series is described as follows: Upland soil application test, crop injury cotton. The format is in vivo. The conditions noted are these: soil application one day after seeding, 50 g ai/a, wettable powder, fresh weight on 50th day after spray. On the procedure:
as §1

Series [9] deals with Amaranth (Amaranthus viridis). The experiment in a line: Upland foliar application test, amaranth. The conditions noted are these: 960 h, foliar application at stage of 2-3 leaves, 50 g ai/a, emulsion, 40th day after spray, read-out: Herbicidal effects Amaranth (Amaranthus viridis). The format is in vivo. Here is the method:
as §1
(§2) Resin-made 1/1000-are pots were filled with the soil of an upland field. After they were fertilized, cotton and soybean were seeded and 3 cm soil covering was applied. Five days later, amaranth, common lambsquarters, barnyardgrass, green foxtail, large crabgrass and johnsongrass were seeded and 1 cm soil covering was applied. They were allowed to grow in a green house. When each plant grew to the stage of 2-3 leaves, an emulsion formulated from a predetermined amount of each test compound in a similar manner to the procedures described in Formulation Example 11 was diluted with water and then sprayed at a predetermined application rate by means of a pressure-operated sprayer. The application rate was controlled at 5 l per are. Influence to the crops and weeds were observed on the 40th day after the spray of the herbicides. The results are shown in Table 4 in which the degree of damages of each test plant and the degree of injury to each crop are shown in a similar manner to Test 2.

Series [10] has as its system common lambsquarters. The series is described as follows: Upland foliar application test, common lambsquarters. The class given is in vivo. Particulars: Chenopodium album, 960 h; foliar application at stage of 2-3 leaves, 50 g ai/a, emulsion, 40th day after spray; read-out: Herbicidal effects Common lambquarters. On the procedure:
as §2

The subject of series [11] is Barnyardgrass (Echinochloa crusgalli). The experiment in a line: Upland foliar application test, barnyardgrass. The format is in vivo. The conditions noted are these: Echinochloa crus-galli, 960 h; foliar application at stage of 2-3 leaves, 50 g ai/a, emulsion, 40th day after spray; read-out: Herbicidal effects Barnyardgrass (Echinochloa crusgalli). Here is the method: as §2

The test system of series [12] is Foxtail (Setaria viridis). The experiment in a line: Upland foliar application test, green foxtail. The format is in vivo. The conditions noted are these: 960 h, foliar application at stage of 2-3 leaves, 50 g ai/a, emulsion, 40th day after spray, read-out: Herbicidal effects Foxtail (Setaria viridis). On the procedure: as §1, §2
Series [13] concerns Crabgrass (Digitaria adscendens). The series is described as follows: Upland foliar application test, large crabgrass. The class given is in vivo. The conditions noted are these: 960 h, foliar application at stage of 2-3 leaves, 50 g ai/a, emulsion, 40th day after spray, read-out: Herbicidal effects Crabgrass (Digitaria adscendens). On the procedure: as §1, §2
The subject of series [14] is Johnsongrass. The series is described as follows: Upland foliar application test, johnsongrass. The conditions noted are these: Sorghum halepense, 960 h; foliar application at stage of 2-3 leaves, 50 g ai/a, emulsion, 40th day after spray; read-out: Herbicidal effects Johnsongrass. The class given is in vivo. Here is the method: as §2
Series [15] relates to Soybean (Glycine max). The series is described as follows: Upland foliar application test, crop injury soybean. The class given is in vivo. The conditions noted are these: foliar application at stage of 2-3 leaves, 50 g ai/a, emulsion, 40th day after spray. Here is the method: as §2
The subject of series [16] is Cotton (Gossypium indicum). The series is described as follows: Upland foliar application test, crop injury cotton. The format is in vivo. The conditions noted are these: foliar application at stage of 2-3 leaves, 50 g ai/a, emulsion, 40th day after spray. On the procedure: as §1, §2
For series [17], the system named is johnsongrass emerging from rhizome. The experiment in a line: Application test on johnsongrass emerging from rhizome. The conditions noted are these: foliar application at stage of 4-5 leaves, application rate of active ingredient 20 (unit not given), emulsion, 50th day after spray. The format is in vivo. On the procedure:
as §1
Resin-made 1/1000-are pots were filled with the soil of an upland field. After they were fertilized, rhizome of johnsongrass were transplanted to the pots and 3 cm soil covering was applied. They were allowed to grow in a green house. When each johnsongrass grew to the stage of 4-5 leaves, an emulsion formulated from a predetermined amount of each test compound in a similar manner to the procedures described in Formulation Example 11 was diluted with water and then sprayed at a predetermined application rate by means of a pressure-operated sprayer. The application rate was controlled at 5 l per are. The effect of each compound against the johnsongrass emerging from its rhizome was observed on the 50th day after the spray of the herbicides. The results are shown in Table 5 in which the herbicidal effect against johnsongrass is shown in a similar manner to Test 2.

The subject of series [18] is ALS (acetolactate syntase) from barnyardgrass seedlings. The series is described as follows: ALS (acetolactate syntase) inhibition test, barnyardgrass enzyme. The format is biochemical. The conditions noted are these: 10,000 ppm (0.5 μg/0.5 ml) of compound; 1 hour at 30° C.; absorbance at 525 nm. On the procedure: (§3) To determine the selectivity in enzyme level between crops and weeds, an ALS inhibition test was conducted using pea as a typical broadleaf crop and barnyardgrass as a representative gramineous weeds.
(§4) After seeds of pea and barnyardgrass were allowed to germinate at 25° C. for 8-14 days in a dark place, partially-purified suspensions (Suspensions A) of acetolactate syntase were separately obtained from the seedlings in accordance with the procedures described in the literature, Plant Physiology, 75, 827-831. In a test tube, 0.5 mg of one of test compounds was weighed, followed by the addition of 0.15 ml of a 20 mM K2 HPO4 solution and 0.25 ml of a reaction substrate medium which consisted of 40 mM of K2 HPO4, 40 mM of sodium pyruvate, 1 mM of TPP, 1 mM of MgCl2 and 20 μM of FAD so that 0.4 ml of a reaction solution (Solution B) was prepared. Added to 0.4 ml of Solution B was 0.1 ml of Suspension A. After the resultant mixture was shaken for 1 hour in a thermostat water bath controlled at 30° C., 50 μl of 6N sulfuric acid were added to terminate the reaction.
(§5) Next, the test tube with the reaction-terminated liquid mixture contained therein was transferred into a thermostat water bath controlled at 60° C. and was heated for 15 minutes. Thereafter, 0.5 ml of a 0.5% creatine solution and 0.5 ml of a 5% alkaline α-naphthol solution were added, and the resultant mixture was maintained at 60° C. for 15 minutes. As a result, the test solution developed a pink-to-red color. After the above operation, the absorbance of the test solution at 525 nm was measured by a spectrophotometer (Absorbance 1 of Test Compound).
(§6) Further, the absorbance (Absorbance 2 of Blank) of a solution obtained by subjecting a portion of Solution B to the above procedures without addition of any test compound and the absorbance (Absorbance 3 of sulfuric acid) of another solution obtained by subjecting another portion of Solution B to the above procedures which using 50 μl of 6N sulfuric acid as a test compound were also measured.

In series [19] the test system is ALS (acetolactate syntase) from pea seedlings. The experiment in a line: ALS (acetolactate syntase) inhibition test, pea enzyme. The class given is biochemical. The conditions noted are these: 10,000 ppm (0.5 μg/0.5 ml) of compound; 1 hour at 30° C.; absorbance at 525 nm. On the procedure:
as §3, §4, §5, §6

Turning to `COc1cc(OC)nc(Oc2ccccc2C(OC)OC)n1` [Comp. Comp'd C, 2-(4,6-dimethoxypyrimidin-2-yloxy)benzaldehyde dimethylacetal, reference compound], the pest or weed control at 5000 g/ha in [1] is 80%; with common lambsquarters [2], 100%; in series [3], 100%; in series [4] it was 100%; in [5], 100%; with Johnsongrass [6], 100%. Also, the pest or weed control at 5000 g/ha in series [9] turned out to be 100%; in the series on common lambsquarters [10], 90%; in [11], 100%; in series [12], 95%; in series [13] it was 90%; in the series with Johnsongrass [14] it was 100%. Moreover, the figures for the “Crop injury Soybean (Glycine max)” value with Soybean (Glycine max) [7] and with Soybean (Glycine max) [15] were 50% and 40%, respectively. The “Crop injury Cotton (Gossypium indicum)” value is 55% in series [8] and 50% in series [16]. The “Herbicidal effect against johnsongrass emerging from rhizome” value (“Herbicidal effect” below) in [17] is listed as 40%.

For `CCCCCCCCOC(OCCCCCCCC)c1ccccc1Oc1nc(OC)cc(OC)n1` [Compound No. 7, 2-(4,6-dimethoxypyrimidin-2-yloxy)benzaldehyde di-n-octylacetal], the “Enzymoreaction inhibition rate (%) Barnyardgrass” value in series [18] was found to be 100%. Moreover, in series [19], the “Enzymoreaction inhibition rate (%) Pea” value is given as 0%. For the same compound, the pest or weed control at 5000 g/ha in series [1] was 80%; in the series with common lambsquarters [2], 85%; in series [3], 85%; in series [4], 90%; in [5] it was 80%; in the series with Johnsongrass [6], 100%. The pest or weed control at 5000 g/ha in [9] turned out to be 90%; in the series with common lambsquarters [10] it was 85%; in series [11], 95%; in series [12] it was 90%; in [13] it was 90%; in the series with Johnsongrass [14], 100%. For the same compound, the “Crop injury Soybean (Glycine max)” value with Soybean (Glycine max) [7] and in the series on Soybean (Glycine max) [15] was 0% throughout. The “Crop injury Cotton (Gossypium indicum)” value in series [8] and in series [16] was 0% in each case. Moreover, the “Herbicidal effect” value in series [17] is recorded as 80%.

In the case of `CCOC(OCC)c1ccccc1Oc1nc(OC)cc(OC)n1` [Comp. Comp'd D, 2-(4,6-dimethoxypyrimidin-2-yloxy)benzaldehyde diethylacetal, reference compound], the pest or weed control at 5000 g/ha in [1] amounted to 100%; in the series on common lambsquarters [2], 100%; in series [3], 100%; in [4] it was 100%; in [5], 85%; in the series on Johnsongrass [6] it was 100%. For the same compound, the pest or weed control at 5000 g/ha in series [9] is 100%; with common lambsquarters [10] it was 90%; in series [11] it was 100%; in series [12], 95%; in series [13], 90%; in the series with Johnsongrass [14], 100%. Moreover, the “Crop injury Soybean (Glycine max)” value with Soybean (Glycine max) [7] was 40%; with Soybean (Glycine max) [15], 35%. The “Crop injury Cotton (Gossypium indicum)” value in series [8] is reported as 45%; in [16] it was 35%. Also, in series [17], the “Herbicidal effect” value turned out to be 50%.

Take `COc1cc(OC)nc(Oc2c(Cl)cccc2C(OC)OC)n1` [Comp. Comp'd E, reference compound]: the pest or weed control at 5000 g/ha in series [1] is 45%; with common lambsquarters [2] it was 50%; in [3], 55%; in series [4], 60%; in series [5], 60%; in the series on Johnsongrass [6], 35%. The pest or weed control at 5000 g/ha in series [9] worked out at 60%; in the series on common lambsquarters [10] it was 65%; in [11], 65%; in series [12], 50%; in series [13], 45%; in the series with Johnsongrass [14], 30%. In addition, the “Crop injury Soybean (Glycine max)” value in the series on Soybean (Glycine max) [7] and with Soybean (Glycine max) [15] was 30% in each case. The “Crop injury Cotton (Gossypium indicum)” value in series [8] and in series [16] was 30% throughout. The “Herbicidal effect” value in [17] is recorded as 5%.

The values above are taken from patent publication US5178662A, “Benzaldehyde acetal compounds, preparation process thereof, and herbicidal compositions containing the same as active ingredients” (Mitsui Toatsu Chemicals, Inc., priority 1990, dated 1993).
